Test results as given in the supplement of paper PMC10307832.

Columns and labels:
Experiment in all cases: relative viability (nuclei count vs DMSO), 5 days (fraction); higher = more cells survive
MK-2206 + Linsitinib = compound: NC1(c2ccc(-c3nc4ccn5c(=O)[nH]nc5c4cc3-c3ccccc3)cc2)CCC1 [MK-2206] + C[C@]1(O)C[C@@H](c2nc(-c3ccc4ccc(-c5ccccc5)nc4c3)c3c(N)nccn32)C1 [Linsitinib] (partner 1 µM)
Summary of the method: (§1)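 Five library-drug doses in √10 steps were combined with a fixed anchor-drug dose, or a single drug was given alone, by pin tool to lung cancer cell lines in 1536-well plates the day after seeding. Nuclei were stained and counted after 5 days. Relative viability is the nuclei count in treated wells over that in vehicle wells, taken as the median of duplicate plates.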

MK-2206 + Bortezomib = compound: NC1(c2ccc(-c3nc4ccn5c(=O)[nH]nc5c4cc3-c3ccccc3)cc2)CCC1 [MK-2206] + CC(C)C[C@H](NC(=O)[C@H](Cc1ccccc1)NC(=O)c1cnccn1)B(O)O [Bortezomib] (partner 0.002 µM)
Summary of the method: as §1

Pictilisib + Vorinostat = compound: CS(=O)(=O)N1CCN(Cc2cc3nc(-c4cccc5[nH]ncc45)nc(N4CCOCC4)c3s2)CC1 [Pictilisib] + O=C(CCCCCCC(=O)Nc1ccccc1)NO [Vorinostat] (partner 1 µM)
Summary of the method: as §1

Pictilisib + Tozasertib = compound: CS(=O)(=O)N1CCN(Cc2cc3nc(-c4cccc5[nH]ncc45)nc(N4CCOCC4)c3s2)CC1 [Pictilisib] + Cc1cc(Nc2cc(N3CCN(C)CC3)nc(Sc3ccc(NC(=O)C4CC4)cc3)n2)n[nH]1 [Tozasertib] (partner 0.1 µM)
Summary of the method: as §1

MK-2206 + Vorinostat = compound: NC1(c2ccc(-c3nc4ccn5c(=O)[nH]nc5c4cc3-c3ccccc3)cc2)CCC1 [MK-2206] + O=C(CCCCCCC(=O)Nc1ccccc1)NO [Vorinostat] (partner 1 µM)
Summary of the method: as §1

Cell Line	relative viability (MK-2206 + Linsitinib; first compound 0.01 µM)	relative viability (MK-2206 + Linsitinib; first compound 0.03162 µM)	relative viability (MK-2206 + Linsitinib; first compound 0.3162 µM)	relative viability (MK-2206 + Linsitinib; first compound 1 µM)	relative viability (MK-2206 + Bortezomib; first compound 0.01 µM)	relative viability (MK-2206 + Bortezomib; first compound 0.03162 µM)	relative viability (MK-2206 + Bortezomib; first compound 0.3162 µM)	relative viability (MK-2206 + Bortezomib; first compound 1 µM)	relative viability (Pictilisib + Vorinostat; first compound 0.02 µM)	relative viability (Pictilisib + Vorinostat; first compound 0.06325 µM)	relative viability (Pictilisib + Vorinostat; first compound 0.6325 µM)	relative viability (Pictilisib + Vorinostat; first compound 2 µM)	relative viability (Pictilisib + Tozasertib; first compound 0.02 µM)	relative viability (Pictilisib + Tozasertib; first compound 0.06325 µM)	relative viability (Pictilisib + Tozasertib; first compound 0.6325 µM)	relative viability (Pictilisib + Tozasertib; first compound 2 µM)	relative viability (MK-2206 + Vorinostat; first compound 0.01 µM)	relative viability (MK-2206 + Vorinostat; first compound 0.03162 µM)	relative viability (MK-2206 + Vorinostat; first compound 0.3162 µM)	relative viability (MK-2206 + Vorinostat; first compound 1 µM)
LC-2-ad	0.813	0.843	0.909	0.781	0.971	1.09	1.01	0.91	0.699	0.779	0.466	0.447	0.482	0.516	0.345	0.264	0.663	0.72	0.753	0.665
LCLC-97TM1	0.219	0.171	0.177	0.174	0.415	0.593	0.39	0.44	0.712	0.658	0.619	0.212	0.251	0.211	0.0992	0.0885	0.578	0.779	0.625	0.734
LCLC-103H	1.08	1.07	1	1.12	1.04	1.03	1.02	1.07	0.84	0.737	0.634	0.469	0.636	0.456	0.339	0.26	0.764	0.827	0.701	0.743
LOU-NH91	0.939	1.01	0.941	0.844	0.466	0.521	0.47	0.443	1.09	0.901	0.797	0.651	0.744	0.664	0.566	0.495	0.938	0.933	0.887	0.826
LU99A	0.51	0.506	0.523	0.421	1.27	1.12	1.14	1.06	0.548	0.593	0.327	0.225	0.338	0.292	0.262	0.163	0.456	0.529	0.473	0.49
LXF-289	0.954	0.988	0.966	0.99	0.949	1.04	1.06	1.06	0.885	0.696	0.763	0.557	0.224	0.215	0.155	0.0896	0.736	0.797	0.867	0.78
NCI-H23	0.583	0.625	0.58	0.628	0.906	1.04	0.91	0.975	0.636	0.722	0.349	0.263	0.326	0.413	0.294	0.35	0.6	0.508	0.569	0.372
NCI-H322M	0.912	0.949	0.869	0.942	1.12	1.35	1.31	1.41	0.955	0.888	0.741	0.543	0.494	0.49	0.4	0.282	0.844	0.936	0.944	0.977
NCI-H441	0.674	0.579	0.435	0.415	0.841	0.575	0.223	0.233	0.972	0.682	0.607	0.457	0.654	0.542	0.527	0.289	0.76	0.707	0.701	0.565
NCI-H460	0.733	0.801	0.325	0.229	1.03	1.2	0.97	1.06	0.796	0.757	0.842	0.155	0.411	0.401	0.28	0.0523	0.677	0.785	0.717	0.599
NCI-H520	1.13	0.933	0.52	0.542	0.485	0.675	0.431	0.242	0.794	0.73	0.353	0.203	0.413	0.412	0.234	0.232	0.677	0.677	0.337	0.31
NCI-H596	1.14	1.11	0.846	0.734	1.07	1.09	0.964	0.648	0.545	0.618	0.371	0.709	0.822	0.901	0.591	0.356	0.64	0.754	0.604	0.462
NCI-H647	1.18	1.1	1.07	1.03	1.06	1.27	0.959	0.644	0.532	0.795	0.515	0.276	0.323	0.338	0.291	0.0558	0.569	0.429	0.567	0.654
NCI-H650	0.809	1.04	0.798	0.791	0.898	0.932	0.642	0.656	0.533	0.427	0.378	0.164	0.733	0.76	0.66	0.478	0.455	0.414	0.345	0.428
NCI-H661	0.583	0.725	0.665	0.541	0.857	0.864	0.862	0.989	0.857	0.826	0.936	0.745	0.345	0.354	0.4	0.396	0.759	0.737	0.767	0.681
NCI-H727	0.308	0.313	0.244	0.27	0.901	0.828	0.587	0.54	1.04	1.29	1.11	0.867	0.614	0.542	0.568	0.486	1.18	1.33	1.25	0.901

Cell Line	relative viability (MK-2206 + Linsitinib; first compound 0.01 µM)	relative viability (MK-2206 + Linsitinib; first compound 0.03162 µM)	relative viability (MK-2206 + Linsitinib; first compound 0.3162 µM)	relative viability (MK-2206 + Linsitinib; first compound 1 µM)	relative viability (MK-2206 + Bortezomib; first compound 0.01 µM)	relative viability (MK-2206 + Bortezomib; first compound 0.03162 µM)	relative viability (MK-2206 + Bortezomib; first compound 0.3162 µM)	relative viability (MK-2206 + Bortezomib; first compound 1 µM)	relative viability (Pictilisib + Vorinostat; first compound 0.02 µM)	relative viability (Pictilisib + Vorinostat; first compound 0.06325 µM)	relative viability (Pictilisib + Vorinostat; first compound 0.6325 µM)	relative viability (Pictilisib + Vorinostat; first compound 2 µM)	relative viability (Pictilisib + Tozasertib; first compound 0.02 µM)	relative viability (Pictilisib + Tozasertib; first compound 0.06325 µM)	relative viability (Pictilisib + Tozasertib; first compound 0.6325 µM)	relative viability (Pictilisib + Tozasertib; first compound 2 µM)	relative viability (MK-2206 + Vorinostat; first compound 0.01 µM)	relative viability (MK-2206 + Vorinostat; first compound 0.03162 µM)	relative viability (MK-2206 + Vorinostat; first compound 0.3162 µM)	relative viability (MK-2206 + Vorinostat; first compound 1 µM)
NCI-H838	1	1.03	1.02	0.95	0.822	0.916	0.836	0.751	0.731	0.632	0.648	0.53	0.266	0.218	0.242	0.149	0.705	0.714	0.647	0.654
NCI-H1355	0.768	0.805	0.726	0.786	1.22	1.25	1.07	1.14	0.62	0.624	0.589	0.257	0.582	0.474	0.484	0.183	0.598	0.667	0.541	0.49
NCI-H1437	0.99	1.08	0.948	0.951	0.521	0.531	0.444	0.529	0.882	0.949	0.611	0.516	0.383	0.41	0.324	0.242	0.879	0.846	0.964	0.821
NCI-H1651	0.906	0.915	0.874	0.937	0.881	0.903	1.02	0.947	0.519	0.551	0.538	0.344	0.637	0.567	0.544	0.286	0.568	0.583	0.597	0.461
NCI-H1666	0.753	0.73	0.695	0.709	0.832	0.801	0.613	0.5	1.09	1.03	0.916	0.867	0.628	0.599	0.627	0.483	1.03	1.07	1.04	0.916
NCI-H1734	0.816	0.934	0.632	0.584	0.847	1.02	0.66	0.725	0.878	0.779	0.482	0.375	0.254	0.275	0.226	0.193	0.877	0.822	0.629	0.67
NCI-H1755	0.997	0.996	0.903	0.876	0.96	0.99	0.838	0.689	0.795	0.812	0.642	0.354	0.548	0.605	0.475	0.356	0.774	0.698	0.582	0.636
NCI-H1915	1.12	1.07	1.04	1.09	0.969	1.02	0.983	0.862	0.537	0.521	0.536	0.403	0.433	0.432	0.405	0.308	0.567	0.511	0.483	0.534
NCI-H1975	1.02	0.81	0.679	0.72	0.464	0.34	0.28	0.261	0.708	0.665	0.386	0.204	0.821	0.691	0.361	0.107	0.712	0.63	0.572	0.522
NCI-H1993	0.681	0.811	0.704	0.71	1.08	1.2	0.769	0.613	0.713	0.639	0.494	0.436	0.483	0.567	0.5	0.529	0.765	0.962	0.611	0.504
NCI-H2009	1.15	1.16	1.16	1.02	0.969	1.03	1.12	0.94	0.766	0.723	0.645	0.5	0.719	0.736	0.75	0.461	0.759	0.739	0.708	0.766
NCI-H2023	0.642	0.586	0.438	0.312	0.958	0.838	0.778	0.612	0.685	0.662	0.35	0.178	0.416	0.403	0.197	0.0836	0.54	0.428	0.431	0.391
NCI-H2085	0.915	0.85	0.815	0.692	1.06	1.12	0.929	0.716	0.792	0.832	0.498	0.319	0.765	0.733	0.52	0.3	0.693	0.754	0.751	0.653
NCI-H2087	0.965	0.906	0.791	0.914	0.763	0.875	0.807	0.69	0.61	1.06	0.919	0.539	0.232	0.228	0.168	0.187	0.469	1.1	0.791	0.862
NCI-H2126	0.742	0.634	0.63	0.686	1.09	1.11	1.07	1.06	0.794	0.732	0.504	0.317	0.826	0.807	0.73	0.517	0.718	0.789	0.608	0.623
